Columns and labels:
HIV = details: cited from earlier work
E-coniferyl alcohol [1] = assay: E-coniferyl alcohol coupling assay (oxidant with/without dirigent protein); type: biochemical, Forsythia intermedia; details: 6 hour assay
Description: E-coniferyl alcohol coupling assay. E-[9-^3H]Coniferyl alcohol (4 μmol ml^−1, 29.3 kBq) was incubated with a 120-kD laccase (previously purified from Forsythia intermedia stem tissue) over a […], in the presence and absence of the dirigent protein, as follows. Each assay consisted of E-[9-^3H]coniferyl alcohol (4 μmol ml^−1, 29.3 kBq, 7.3 MBq mole liter^−1; or 2 μmol ml^−1, 14.7 kBq with fraction III), the 78-kD dirigent protein, an oxidase or oxidant, or both [final concentrations: 770 pmol ml^−1 dirigent protein; 10.7 pmol protein ml^−1 Forsythia laccase; 12 μg protein ml^−1 fraction III; 0.5 μmol ml^−1 FMN; 0.5 μmol ml^−1 FAD; 1 and 10 μmol ml^−1 ammonium peroxydisulfate] in buffer (0.1 M MES-HEPES-sodium acetate, pH 5.0) to a total volume of 250 μl. The enzymatic reaction was initiated by addition of E-[9-^3H]coniferyl alcohol. Controls were performed in the presence of buffer alone.
After one hour incubation at 30° C. while shaking, the assay mixture was extracted with ethyl acetate (EtOAc, 500 μl) containing (±)-pinoresinols (7.5 μg), (±)-dehydrodiconiferyl alcohols (3.5 μg) and erythro/threo (±)-guaiacylglycerol 8-O-4′-coniferyl alcohol ethers (7.5 μg) as radiochemical carriers and ferulic acid (15.0 μg) as an internal standard. After centrifugation (13,800 g, 5 min), the EtOAc soluble components were removed and the extraction procedure repeated with EtOAc (500 μl). The EtOAc soluble components from each assay were combined, the solutions evaporated to dryness in vacuo, redissolved in methanol-water solution (1:1; 100 μl) with an aliquot (50 μl) thereof subjected to reversed-phase column chromatography (Waters, Nova-Pak C18, 150 mm by 3.8 mm). The elution conditions were as follows: acetonitrile/3% acetic acid in H2O (5:95) from 0 to 5 min, then linear gradients to ratios of 10:90 between 5 and 20 min, then to 20:80 between 20 and 45 min and finally to 50:50 between 45 and 60 min, at a flow rate of 8.8 ml min^−1 cm^−2.
Fractions corresponding to E-coniferyl alcohol, erythro/threo (±)-guaiacylglycerol 8-O-4′-coniferyl alcohol ethers, (±)-dehydrodiconiferyl alcohols and (±)-pinoresinols were individually collected, aliquots removed for liquid scintillation counting, and the remainder freeze-dried. Pinoresinol-containing fractions were redissolved in methanol (100 μl) and subjected to chiral column chromatography (Daicel, Chiralcel OD, 50 mm by 4.6 mm) with a solution of hexanes and ethanol (1:1) as the mobile phase (flow rate 3 ml min^−1 cm^−2), whereas dehydrodiconiferyl alcohol fractions were subjected to Chiralcel OF (250 mm by 4.6 mm) column chromatography eluted with a solution of hexanes and isopropanol (9:1) as the mobile phase (flow rate 2.4 ml min^−1 cm^−2), the radioactivity of the eluent being measured with a flow-through detector (Radiomatic, Model A120).
Ammonium peroxydisulfate readily undergoes homolytic cleavage (A. Usaitis, R. Makuska, Polymer 35:4896 (1994)) and is routinely used as an one-electron oxidant in acrylamide polymerization. Ammonium peroxydisulfate was first incubated with E-[9-^3H]coniferyl alcohol (4 μmol ml^−1, 29.3 kBq) for 6 hours using the E-coniferyl alcohol coupling assay procedure described above.

E-sinapyl alcohol = E-sinapyl alcohol coupling assay (oxidant with/without dirigent protein); type: biochemical, Forsythia intermedia; details: FMN 0.5 μmol ml^−1 or ammonium peroxydisulfate 10 μmol ml^−1, 6 hour assay
Description: Investigation of Substrate-Specific Stereoselectivity. The coupling stereoselectivity was substrate specific. Neither E-p-[9-^3H]coumaryl (4 μmol ml^−1, 44.5 kBq) or E-[8-^14C]sinapyl alcohols (4 μmol ml^−1, 8.3 kBq), which differ from E-coniferyl alcohol only by a methoxyl group substituent on the aromatic ring, yielded stereoselective products when incubated for 6 hours with FMN and ammonium peroxydisulfate respectively, in the presence and absence of the dirigent protein. Incubations were carried out as described above with the following modifications: E-p-[9-^3H]coumaryl (4 μmol ml^−1, 44.5 kBq) or E-[8-^14C]sinapyl alcohols (4 μmol ml^−1, 8.3 kBq) were used as substrates and, after 6 hour incubation at 30° C., the reaction mixture was extracted with EtOAc but without addition of radiochemical carriers.

E-coniferyl alcohol [2] = assay: Kinetic characterization of conversion of E-coniferyl alcohol to (+)-pinoresinol with dirigent protein and oxidase/oxidant; type: biochemical, Forsythia intermedia; details: (+)-pinoresinol formation from E-coniferyl alcohol, dirigent protein 770 pmol ml^−1 alone or with Fraction III 12 μg protein ml^−1, laccase 2.07 pmol ml^−1, FMN 0.5 μmol ml^−1
Description: Assays were carried out as described in Example 3 by incubating a series of E-[9-^3H]coniferyl alcohol concentrations (between 8.00 and 0.13 μmol ml^−1, 7.3 MBq mole literl) with dirigent protein (770 pmol ml^−1) alone and in presence of Forsythia laccase (2.1 pmol ml^−1), fraction III (12 μg protein ml^−1), or FMN (0.5 μmol ml^−1). Assays with dirigent protein, in presence or absence of FMN, were incubated at 30° C. for 1 hour, whereas assays with Forsythia laccase or fraction III in presence or absence of dirigent protein were incubated at 30° C. for 15 min. If free-radical capture by the dirigent protein is the operative mechanism, the Michaelis-Menten parameters obtained will only represent formal rather than true values, because the highest free-energy intermediate state during the conversion of E-coniferyl alcohol into (+)-pinoresinol is still unknown and the relation between the concentration of substrate and that of the corresponding intermediate free-radical in open solution has not been delineated.
Bearing these qualifications in mind, we estimated formal Km and Vmax values for the dirigent protein preparation.

[3] = substrate: COc1cc(C[C@H]2CO[C@H](c3ccc(O)c(OC)c3)[C@H]2CO)ccc1O; assay: Initial velocity studies, reductase 35 kDa isoform; type: biochemical, Forsythia intermedia; details: other: 35 kDa form of the enzyme, NADPH 80 μM, pH 7.4, 30° C.
Description: Kinetic Parameters. […] The initial velocity studies were carried out individually utilizing the two isoforms of the enzyme, and individually employing both (+)-pinoresinol and (+)-lariciresinol as substrates. Initial velocity studies were performed in triplicate experiments, using 50 mM Bis-Tris Propane buffer, pH 7.4 containing 5 mM dithiothreitol, pure enzyme (after MonoQ anion-exchange chromatography), ten different substrate concentrations (between 8.8 and 160 μM) at a constant NADPH concentration (80 μM). Incubations were carried out at 30° C. for 10 min (within the linear kinetic range). Kinetic parameters were determined from Lineweaver-Burk plots.

[4] = substrate: COc1cc(C[C@H]2CO[C@H](c3ccc(O)c(OC)c3)[C@H]2CO)ccc1O; assay: purified protein, by the assay type; details: other: 36 kDa form of the enzyme, NADPH 80 μM, pH 7.4, 30° C.
[5] = ammonium peroxydisulfate 1 μmol ml^−1, dirigent protein absent
[6] = ammonium peroxydisulfate 1 μmol ml^−1, dirigent protein present (770 pmol ml^−1)
[7] = ammonium peroxydisulfate 10 μmol ml^−1, dirigent protein absent
[8] = ammonium peroxydisulfate 10 μmol ml^−1, dirigent protein present (770 pmol ml^−1)
[9] = dirigent protein present (770 pmol ml^−1)

For `COc1cc(C[C@H]2C(=O)OC[C@@H]2Cc2ccc(OC)c(OC)c2)ccc1O` [(−)-arctigenin], the “effectiveness against HIV (reverse transcriptase inhibitory activities)” value (HIV) is given as “effective against HIV”.

With `N.N.O=S(=O)(O)OOS(=O)(=O)O` [Ammonium peroxydisulfate] the “(+)-Pinoresinol” value (E-coniferyl alcohol [1]; [5]) was 0 nmol/mL, the “(±)-Dehydro-diconiferyl alcohols” value (E-coniferyl alcohol [1]; [5]) was 35 ± 2 nmol/mL and the “(±)-Guaiacyl-glycerol 8-O-4′-coniferyl alcohol ethers” value (E-coniferyl alcohol [1]; [5]) was 10 ± 1 nmol/mL. The “(±)-Pinoresinols” value (E-coniferyl alcohol [1]; [5]) was 16 ± 0 nmol/mL, the “E-Coniferyl alcohol in dimer equivalents depleted” value (“E-Coniferyl alcohol” for short) (E-coniferyl alcohol [1]; [5]) was 200 ± 4 nmol/mL and the Total dimers (E-coniferyl alcohol [1]; [5]) was 61 ± 3 nmol/mL. The “(+)-Pinoresinol” value (E-coniferyl alcohol [1]; [6]) was 130 ± 10 nmol/mL, the “(±)-Dehydro-diconiferyl alcohols” value (E-coniferyl alcohol [1]; [6]) was 13 ± 1 nmol/mL and the “(±)-Guaiacyl-glycerol 8-O-4′-coniferyl alcohol ethers” value (E-coniferyl alcohol [1]; [6]) was 6 ± 0 nmol/mL. For the same molecule, the “(±)-Pinoresinols” value (E-coniferyl alcohol [1]; [6]) was 0 nmol/mL, the “E-Coniferyl alcohol” value (E-coniferyl alcohol [1]; [6]) was 250 ± 55 nmol/mL and the Total dimers (E-coniferyl alcohol [1]; [6]) was 149 ± 11 nmol/mL. The “(+)-Pinoresinol” value (E-coniferyl alcohol [1]; [7]) was 0 nmol/mL, the “(±)-Dehydro-diconiferyl alcohols” value (E-coniferyl alcohol [1]; [7]) was 250 ± 10 nmol/mL and the “(±)-Guaiacyl-glycerol 8-O-4′-coniferyl alcohol ethers” value (E-coniferyl alcohol [1]; [7]) was 90 ± 4 nmol/mL. For the same molecule, the “(±)-Pinoresinols” value (E-coniferyl alcohol [1]; [7]) was 135 ± 4 nmol/mL, the “E-Coniferyl alcohol” value (E-coniferyl alcohol [1]; [7]) was 860 ± 30 nmol/mL and the Total dimers (E-coniferyl alcohol [1]; [7]) was 475 ± 17 nmol/mL. The “(+)-Pinoresinol” value (E-coniferyl alcohol [1]; [8]) was 450 ± 10 nmol/mL, the “(±)-Dehydro-diconiferyl alcohols” value (E-coniferyl alcohol [1]; [8]) was 90 ± 3 nmol/mL and the “(±)-Guaiacyl-glycerol 8-O-4′-coniferyl alcohol ethers” value (E-coniferyl alcohol [1]; [8]) was 30 ± 1 nmol/mL. The “(±)-Pinoresinols” value (E-coniferyl alcohol [1]; [8]) was 0 nmol/mL, the “E-Coniferyl alcohol” value (E-coniferyl alcohol [1]; [8]) was 1030 ± 25 nmol/mL and the Total dimers (E-coniferyl alcohol [1]; [8]) was 570 ± 14 nmol/mL. For the same molecule, the “E-Sinapyl alcohol in dimer equivalents depleted” value (“E-Sinapyl alcohol” for short) (E-sinapyl alcohol; dirigent protein absent) was 1400 ± 120 nmol/mL, the “Racemic (±)-syringaresinols” value (E-sinapyl alcohol; dirigent protein absent) was 1020 ± 40 nmol/mL and the “E-Sinapyl alcohol” value (E-sinapyl alcohol; [9]) was 1520 ± 10 nmol/mL. For the same molecule, the “Racemic (±)-syringaresinols” value (E-sinapyl alcohol; [9]) was 1060 ± 30 nmol/mL.

With `Cc1cc2nc3c(=O)[nH]c(=O)nc-3n(C[C@H](O)[C@H](O)[C@H](O)COP(=O)(O)O)c2cc1C` [FMN, flavin mononucleotide] the “E-Sinapyl alcohol” value (E-sinapyl alcohol; dirigent protein absent) was 570 ± 100 nmol/mL, the “Racemic (±)-syringaresinols” value (E-sinapyl alcohol; dirigent protein absent) was 290 ± 40 nmol/mL and the “E-Sinapyl alcohol” value (E-sinapyl alcohol; [9]) was 610 ± 110 nmol/mL. For the same molecule, the “Racemic (±)-syringaresinols” value (E-sinapyl alcohol; [9]) was 340 ± 40 nmol/mL, the Vmax (E-coniferyl alcohol [2]) was 0.024 ± 0.001 mol s^−1 mol^−1 dirigent protein and the Km (E-coniferyl alcohol [2]; read-out: Formal Km) was 100 ± 10 µM.

For `CC(Cc1ccc(O)c(O)c1)C(C)Cc1ccc(O)c(O)c1` (stereo not shown) [nordihydroguaiaretic acid], the “effectiveness against HIV (reverse transcriptase inhibitory activities)” value (HIV) is listed as “effective against HIV”.

B1: 35 kDa form of (+)-pinoresinol/(+)-lariciresinol reductase (Forsythia x intermedia) (protein)
chain: GKSKVLIIGGTGYLGRRLVKASLAQGHETYILHRPEIGVDIDKVEMLISFKMQGAHLVSGSFKDFNSLVEAVKLVDVVISAISGVHIRSHQILLQLKLVEAIKEAGNVKRFLPSEFGMDPAKFMDTAMEPGKVTLDEKMVVRKAIEKAGIPFTYVSANCFAGYFLGGLCQFGKILPSRDFVIIHGDGNKKAIYNNEDDIATYAIKTINDPRTLNKTIYISPPKNILSQREVVQTWEKLIGKELQKITLSKEDFLASVKELEYAQQVGLSHYHDVNYQGCLTSFEIGDEEEASKLYPEVKYTSVEEYLKRYV
notes: pure enzyme (after MonoQ anion-exchange chromatography); from tissue; host or cells: Forsythia intermedia stems
For B1, the Km [3] was 121 ± 5.0 µM and the Vmax [3] was 25.2±0.7 μmol h^−1 mg^−1 of protein.

B2: 36 kDa form of (+)-pinoresinol/(+)-lariciresinol reductase (Forsythia x intermedia) (protein)
chain: GKSKVLIIGGTGYLGRRLVKASLAQGHETYILHRPEIGVDIDKVEMLISFKMQGAHLVSGSFKDFNSLVEAVKLVDVVISAISGVHIRSHQILLQLKLVEAIKEAGNVKRFLPSEFGMDPAKFMDTAMEPGKVTLDEKMVVRKAIEKAGIPFTYVSANCFAGYFLGGLCQFGKILPSRDFVIIHGDGNKKAIYNNEDDIATYAIKTINDPRTLNKTIYISPPKNILSQREVVQTWEKLIGKELQKITLSKEDFLASVKELEYAQQVGLSHYHDVNYQGCLTSFEIGDEEEASKLYPEVKYTSVEEYLKRYV
With B2 the Km [4] was 123 ± 6.0 µM and the Vmax [4] was 29.9±0.7 μmol h^−1 mg^−1 of protein.
